Where two headings read alike, the source gives them in different places.
What was measured:
[1] = system: relapsed-refractory multiple myeloma (RRMM) patients; experiment: Safety in patients with RRMM, Example 2a; assay type: in vivo, human; conditions: 40 mg
Protocol: (§1) Example 2: An open label single arm extension on the dose of 40 mg over 30 minutes of Example 1. Intravenous melflufen was administered over 30 minutes on Day 1 of a 21-day cycle or 28-day cycle (in combination with 40 mg dexamethasone (oral or intravenous) treatment on Days 1, 8 and 15) for at least 2 cycles, and up to the stated number of cycles. The cycle length was extended during the Example 2 Clinical Trial from 21 to 28 days per a protocol amendment to allow for a better recovery of neutrophils and thrombocytes before a new cycle is initiated.
(§2) Example 2a results are from a data cut-off of time point (a). Example 2b results are from a data cut-off of time point (bi) for the efficacy data, which was approximately 12 months after time point (a); and from a data cut-off of time point (bii) for the safety data, which was approximately 10 months after time point (a).
As mentioned above, by the data cut-off for Example 2a 38 patients had been dosed with 162 doses of melflufen hydrochloride 40 mg over 30 minutes. Median number of cycles was 3 (1-13) and median duration of treatment was 13 weeks (2-51 weeks). The dose intensity was 96% (77-100).

[2] = system: relapsed-refractory multiple myeloma (RRMM) patients; experiment: Safety in patients with RRMM, Example 2b, time point (bii); assay type: in vivo, human
Protocol: as §1
Dose reductions from 40 mg to 25 mg melflufen for patients in the trial was possible in connection with adverse effects of thrombocytopenia/neutropenia.
as §2
By the data cut-off point for safety data (time point (bii)) 40 patients has been dosed with 183 doses of melflufen hydrochloride 40 mg over 30 minutes. A total of 11 patients had dose reductions from 40 mg to 25 mg melflufen during the study. All dose reductions were in connection with AEs of thrombocytopenia/neutropenia. Seven (7) patients (64%) had dose reductions in connection to thrombocytopenia, 3 patients to neutropenia (27%) and 1 patient (9%) to both thrombocytopenia and neutropenia.

[3] = human, in vivo, iv
[4] = 40 mg melflufen (+dex) treated patients
[5] = 40 mg treated patients, Example 2b
[6] = 40 mg, Example 2b N = 40, listed as melflufen hydrochloride
[7] = Cycle length 21 days, 30 patients, 87 cycles
[8] = Cycle length 28 days, 10 patients, 24 cycles
[9] = of the 11 patients with dose reductions
[10] = of the 40 safety evaluable patients

## CCOC(=O)[C@H](Cc1ccc(F)cc1)NC(=O)[C@@H](N)Cc1ccc(N(CCCl)CCCl)cc1.Cl [melflufen, L-Melphalanyl-4-fluoro-L-phenylalanine ethyl ester]
[1]; Example 2a
  Serious TEAE related to melflufen: Diarrhoea: (3) %
  Serious TEAE related to melflufen: Diarrhoea, number of patients: 1
  Serious TEAE related to melflufen: Escherichia coli sepsis: (3) %
  Serious TEAE related to melflufen: Escherichia coli sepsis, number of patients: 1
  Serious TEAE related to melflufen: Febrile Neutropenia: (5) %
  Serious TEAE related to melflufen: Febrile Neutropenia, number of patients: 2
  Serious TEAE related to melflufen: Neutropenia: (3) %
  Serious TEAE related to melflufen: Neutropenia, number of patients: 1
  Serious TEAE related to melflufen: Pneumonia: (8) %
  Serious TEAE related to melflufen: Pneumonia, number of patients: 3
  Serious TEAE related to melflufen: Pyrexia: (5) %
  Serious TEAE related to melflufen: Pyrexia, number of patients: 2
[1]; Example 2a N = 38
  Anemia, treatment related ≥grade 3: (40) %
  Any treatment-related grade 3 and/or grade 4, grade 4: (50) %
  Any treatment-related grade 3 and/or grade 4, ≥grade 3: 87%
  Asthenia, treatment related ≥grade 3: (5) %
  Blood and lymphatic system disorders, treatment related grade 4: (47) %
  Blood and lymphatic system disorders, treatment related ≥grade 3: (76) %
  Fatigue, treatment related ≥grade 3: (5) %
  Febrile neutropenia, treatment related ≥grade 3: (5) %
  General disorders and administration site conditions, treatment related ≥grade 3: (18) %
  Hyperglycemia, treatment related grade 4: (3) %
  Hyperglycemia, treatment related ≥grade 3: (8) %
  Infections and infestations, treatment related ≥grade 3: (8) %
  Investigations, treatment related ≥grade 3: (10) %
  Leukopenia, treatment related grade 4: (13) %
  Leukopenia, treatment related ≥grade 3: (34) %
  Metabolism and nutrition disorders, treatment related grade 4: (3) %
  Metabolism and nutrition disorders, treatment related ≥grade 3: (8) %
  Neutropenia, treatment related grade 4: (26) %
  Neutropenia, treatment related ≥grade 3: (53) %
  Neutrophil count decreased, treatment related ≥grade 3: (10) %
  Pneumonia, treatment related ≥grade 3: (8) %
  Pyrexia, treatment related ≥grade 3: (5) %
  Thrombocytopenia, treatment related grade 4: (34) %
  Thrombocytopenia, treatment related ≥grade 3: (68) %
[1]; Example 2a N = 38, listed as melflufen hydrochloride
  Any treatment-related grade 3 and/or grade 4, ≥grade 3: (87) %
[1]; Example 2a, 38 patients
  patients with Serious TEAEs: 34%
  patients with TEAEs leading to death: 8%
  patients with TEAEs leading to dose reduction of melflufen: 18%
  patients with grade 3 or 4 TEAEs: 90%
  patients with treatment-related Serious TEAEs: 21%
[2]; [4]
  Grade 3 and 4 febrile neutropenia regardless of relationship: 5%
  Grade 3 and 4 lower respiratory tract infection regardless of relationship: 2%
  Grade 3 and 4 lower respiratory tract infection regardless of relationship, n patients: 1
  Grade 3 and 4 neutropenia regardless of relationship, n patients: 23
  Grade 3 and 4 parainfluenza virus infection regardless of relationship: 2%
  Grade 3 and 4 parainfluenza virus infection regardless of relationship, n patients: 1
  Grade 3 and 4 pneumonia regardless of relationship: 10%
[2]; [5]
  Grade 3/4 hyperglycemia (reported as treatment-related to dexamethasone): 10%
  Grade 3/4 hyperglycemia (reported as treatment-related to dexamethasone), n patients: 4
[2]; 40 mg, Example 2b
  Serious TEAE related to melflufen: Diarrhoea: (5) %
  Serious TEAE related to melflufen: Diarrhoea, number of patients: 2
  Serious TEAE related to melflufen: Escherichia coli sepsis: (2.5) %
  Serious TEAE related to melflufen: Escherichia coli sepsis, number of patients: 1
  Serious TEAE related to melflufen: Febrile Neutropenia: (5) %
  Serious TEAE related to melflufen: Febrile Neutropenia, number of patients: 2
  Serious TEAE related to melflufen: Neutropenia: (5) %
  Serious TEAE related to melflufen: Neutropenia, number of patients: 2
  Serious TEAE related to melflufen: Pneumonia: (10) %
  Serious TEAE related to melflufen: Pneumonia, number of patients: 4
  Serious TEAE related to melflufen: Pyrexia: (5) %
  Serious TEAE related to melflufen: Pyrexia, number of patients: 2
  anemia, all grades, regardless of relationship: 65%
  asthenia, all grades, regardless of relationship: 35%
  diarrhoea, all grades, regardless of relationship: 25%
  nausea, all grades, regardless of relationship: 28%
  neutropenia, all grades, regardless of relationship: 65%
  pyrexia, all grades, regardless of relationship: 43%
  thrombocytopenia, all grades, regardless of relationship: 73%
[2]; 40 mg, Example 2b N = 40
  Anemia, treatment related ≥grade 3: 43%
  Any treatment-related grade 3 and/or grade 4, grade 4: (50) %
  Any treatment-related grade 3 and/or grade 4, ≥grade 3: 85%
  Asthenia, treatment related ≥grade 3: (5) %
  Blood and lymphatic system disorders, treatment related grade 4: (50) %
  Blood and lymphatic system disorders, treatment related ≥grade 3: (82.5) %
  Fatigue, treatment related ≥grade 3: (5) %
  Febrile neutropenia, treatment related ≥grade 3: (5) %
  General disorders and administration site conditions, treatment related ≥grade 3: (17.5) %
  Hyperglycemia, treatment related grade 4: (3) %
  Hyperglycemia, treatment related ≥grade 3: (8) %
  Infections and infestations, treatment related ≥grade 3: (5) %
  Investigations, treatment related ≥grade 3: (12.5) %
  Metabolism and nutrition disorders, treatment related grade 4: (3) %
  Metabolism and nutrition disorders, treatment related ≥grade 3: (8) %
  Neutropenia, treatment related grade 4: (30) %
  Neutropenia, treatment related ≥grade 3: 58%
  Neutrophil count decreased, treatment related ≥grade 3: (10) %
  Pneumonia, treatment related ≥grade 3: (5) %
  Pyrexia, treatment related ≥grade 3: (5) %
  Thrombocytopenia, treatment related grade 4: (40) %
  Thrombocytopenia, treatment related ≥grade 3: 63%
  White blood cell count decreased, treatment related ≥grade 3: (5) %
[2]; [6]
  Anemia, treatment related ≥grade 3: (43) %
  Any treatment-related grade 3 and/or grade 4, ≥grade 3: (85) %
  Neutropenia, treatment related ≥grade 3: (57.5) %
  Thrombocytopenia, treatment related ≥grade 3: (62.5) %
[2]; 40 mg, Example 2b, 40 patients
  patients with Serious TEAEs: 40%
  patients with treatment-related Serious TEAEs: 30%
[2]; 14 patients
  median number of cycles before discontinuation due to bone marrow suppression: 3.5 cycles
[2]; [7]
  Cycles with a dose interruption: (37) % of total
  Patients with a dose interruption: (57) % of total
  Patients with a dose reduction: (37) % of total
[2]; [8]
  Cycles with a dose interruption: (13) % of total
  Patients with a dose interruption: (30) % of total
  Patients with a dose reduction: (20) % of total
[2]; Example 2b
  incidence of Grade 3-4 pneumonia: 14%
  infectious adverse effects with fatal outcomes possibly related to the study treatments: 8%
  infectious adverse effects with fatal outcomes possibly related to the study treatments, n patients: 3
[2]; Example 2b, 40 patients
  patients with TEAEs leading to dose reduction of melflufen from 40 mg to 25 mg: 32.5%
[2]; MM patients, clinical trials
  effect on renal function: does not appear to have any effect on renal function
[2]; in the clinical trials
  reports of syncope, seizures, ventricular arrhythmias, ventricular tachycardia, ventricular fibrillation, flutter, torsade de pointes, or sudden deaths: no reports
[2]; [9]
  dose reductions in connection to both thrombocytopenia and neutropenia: 9%
  dose reductions in connection to both thrombocytopenia and neutropenia, n patients: 1
  dose reductions in connection to neutropenia: 27%
  dose reductions in connection to neutropenia, n patients: 3
  dose reductions in connection to thrombocytopenia: 64%
  dose reductions in connection to thrombocytopenia, n patients: 7
[2]; [10]
  treatment discontinuations due to treatment-related bone marrow suppression: 35%
  treatment discontinuations due to treatment-related bone marrow suppression, n patients: 14
[2]; of the 57 patients in the ongoing melflufen study
  fatal events while on treatment or within 30 days of last dose, n patients: 6
[3]
  time after end of infusion within which melflufen is no longer measurable: ≤ 15 min
[3]; 25 mg
  tmax: 15 min
[3]; 40 mg
  tmax: 25 min
